Results: patent US12686673B2 (Blueprint Medicines Corporation, priority 2020, dated 2026)

What was measured:
Type in all cases: cell-based
[1] = biological target: HER2 (A775_G776insYVMA) expressing Ba/F3 stable cell line (Homo sapiens, UniProt P04626, DUP772-775, cells depend on it); test: Cellular proliferation (Alamar Blue) assay, HER2 A775_G776insYVMA Ba/F3; settings: 72 hr, read-out: YVMA IC50
Method in brief: (§1)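 Ba/F3 cells stably expressing the mutant were seeded at 15,000 per well in RPMI with 10% FBS and left 16-18 hours at 37 degree Celsius. Compounds were then added in 3-fold serial dilutions (final 10-0.0005 μM) for 72 hr, and viability was read with Alamar Blue after 3 hours.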

[2] = biological target: EGFR(D770_N771insSVD) expressing Ba/F3 stable cell line (Homo sapiens, UniProt P00533, DUP768-770, cells depend on it); test: Cellular proliferation (Alamar Blue) assay, EGFR D770_N771insSVD Ba/F3; settings: 72 hr, read-out: D770 IC50
Method in brief: as §1

A431 cells = test: Cellular proliferation (Alamar Blue) assay, A431; settings: Homo sapiens, A-431; A431 cells, 72 hr, Alamar Blue; read-out: A431 IC50
[3] = biological target: EGFR (A767_dupASV) expressing Ba/F3 stable cell line (Homo sapiens, UniProt P00533, DUP767-769, cells depend on it); test: Cellular proliferation (Alamar Blue) assay, EGFR A767_dupASV Ba/F3; settings: 72 hr, read-out: A767 IC50
Method in brief: as §1

Sequence of HER2 (A775_G776insYVMA) expressing Ba/F3 stable cell line (P04626 with tags, fused parts or gaps DUP772-775): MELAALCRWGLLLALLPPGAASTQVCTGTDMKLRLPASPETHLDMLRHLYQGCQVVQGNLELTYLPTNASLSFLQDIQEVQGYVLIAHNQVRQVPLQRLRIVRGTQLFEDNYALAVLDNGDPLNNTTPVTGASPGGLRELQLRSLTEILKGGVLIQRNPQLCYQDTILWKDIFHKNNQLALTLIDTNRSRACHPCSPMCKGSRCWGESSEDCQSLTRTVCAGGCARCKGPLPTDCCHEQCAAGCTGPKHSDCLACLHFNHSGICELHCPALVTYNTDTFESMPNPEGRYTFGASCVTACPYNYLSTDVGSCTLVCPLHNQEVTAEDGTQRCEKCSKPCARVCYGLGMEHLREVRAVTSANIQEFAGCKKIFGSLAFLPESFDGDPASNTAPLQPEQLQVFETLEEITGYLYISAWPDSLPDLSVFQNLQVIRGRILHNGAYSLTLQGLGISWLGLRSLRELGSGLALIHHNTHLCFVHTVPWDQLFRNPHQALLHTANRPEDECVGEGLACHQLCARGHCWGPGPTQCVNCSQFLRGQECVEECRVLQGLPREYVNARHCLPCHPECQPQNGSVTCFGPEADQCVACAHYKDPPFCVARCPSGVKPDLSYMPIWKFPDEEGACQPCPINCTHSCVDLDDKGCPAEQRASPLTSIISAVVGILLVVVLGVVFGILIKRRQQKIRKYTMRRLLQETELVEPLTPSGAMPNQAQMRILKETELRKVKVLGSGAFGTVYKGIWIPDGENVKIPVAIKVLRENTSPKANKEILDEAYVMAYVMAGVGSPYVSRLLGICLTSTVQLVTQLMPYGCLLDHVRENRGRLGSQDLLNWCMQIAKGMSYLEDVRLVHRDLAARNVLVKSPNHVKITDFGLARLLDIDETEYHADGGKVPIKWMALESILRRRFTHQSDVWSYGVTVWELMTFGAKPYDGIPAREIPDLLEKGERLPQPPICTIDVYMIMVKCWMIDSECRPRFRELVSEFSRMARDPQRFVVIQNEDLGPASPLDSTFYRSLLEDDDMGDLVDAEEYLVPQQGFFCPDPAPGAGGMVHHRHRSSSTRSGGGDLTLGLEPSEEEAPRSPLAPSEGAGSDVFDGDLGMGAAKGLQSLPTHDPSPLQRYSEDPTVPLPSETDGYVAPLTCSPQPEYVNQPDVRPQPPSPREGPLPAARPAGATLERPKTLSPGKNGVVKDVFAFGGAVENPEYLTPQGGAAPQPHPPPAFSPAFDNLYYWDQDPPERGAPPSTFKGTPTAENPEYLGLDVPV
Sequence of EGFR (A767_dupASV) expressing Ba/F3 stable cell line (P00533 with tags, fused parts or gaps DUP767-769): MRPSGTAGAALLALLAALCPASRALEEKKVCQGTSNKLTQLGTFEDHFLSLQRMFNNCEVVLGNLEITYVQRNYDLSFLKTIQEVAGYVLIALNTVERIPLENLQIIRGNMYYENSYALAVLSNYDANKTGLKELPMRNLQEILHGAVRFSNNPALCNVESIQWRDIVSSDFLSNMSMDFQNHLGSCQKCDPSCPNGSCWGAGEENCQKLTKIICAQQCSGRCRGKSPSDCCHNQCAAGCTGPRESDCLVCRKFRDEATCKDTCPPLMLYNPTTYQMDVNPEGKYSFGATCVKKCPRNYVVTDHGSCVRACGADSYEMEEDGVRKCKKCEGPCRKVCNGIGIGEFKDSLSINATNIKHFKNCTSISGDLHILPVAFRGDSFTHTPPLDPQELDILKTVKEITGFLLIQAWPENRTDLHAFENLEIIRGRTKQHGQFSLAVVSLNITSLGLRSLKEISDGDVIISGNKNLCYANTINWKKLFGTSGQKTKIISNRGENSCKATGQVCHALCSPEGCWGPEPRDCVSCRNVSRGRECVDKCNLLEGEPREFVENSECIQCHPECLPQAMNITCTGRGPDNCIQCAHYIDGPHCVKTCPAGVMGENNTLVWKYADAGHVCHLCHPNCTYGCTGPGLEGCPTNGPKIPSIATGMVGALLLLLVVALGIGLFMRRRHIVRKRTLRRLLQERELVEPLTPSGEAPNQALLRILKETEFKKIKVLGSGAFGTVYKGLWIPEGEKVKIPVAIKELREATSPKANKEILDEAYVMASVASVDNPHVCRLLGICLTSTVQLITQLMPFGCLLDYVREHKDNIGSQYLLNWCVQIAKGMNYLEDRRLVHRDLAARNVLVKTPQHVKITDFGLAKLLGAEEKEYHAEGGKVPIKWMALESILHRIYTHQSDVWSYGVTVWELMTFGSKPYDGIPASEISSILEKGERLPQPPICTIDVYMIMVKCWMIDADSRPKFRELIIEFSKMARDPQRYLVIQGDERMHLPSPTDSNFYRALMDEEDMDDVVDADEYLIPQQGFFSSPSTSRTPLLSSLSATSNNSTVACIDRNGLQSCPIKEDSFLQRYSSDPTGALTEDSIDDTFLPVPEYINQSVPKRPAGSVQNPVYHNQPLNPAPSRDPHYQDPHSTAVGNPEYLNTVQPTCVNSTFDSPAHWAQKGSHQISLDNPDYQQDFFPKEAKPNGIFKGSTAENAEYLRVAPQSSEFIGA
Sequence of EGFR(D770_N771insSVD) expressing Ba/F3 stable cell line (P00533 with tags, fused parts or gaps DUP768-770): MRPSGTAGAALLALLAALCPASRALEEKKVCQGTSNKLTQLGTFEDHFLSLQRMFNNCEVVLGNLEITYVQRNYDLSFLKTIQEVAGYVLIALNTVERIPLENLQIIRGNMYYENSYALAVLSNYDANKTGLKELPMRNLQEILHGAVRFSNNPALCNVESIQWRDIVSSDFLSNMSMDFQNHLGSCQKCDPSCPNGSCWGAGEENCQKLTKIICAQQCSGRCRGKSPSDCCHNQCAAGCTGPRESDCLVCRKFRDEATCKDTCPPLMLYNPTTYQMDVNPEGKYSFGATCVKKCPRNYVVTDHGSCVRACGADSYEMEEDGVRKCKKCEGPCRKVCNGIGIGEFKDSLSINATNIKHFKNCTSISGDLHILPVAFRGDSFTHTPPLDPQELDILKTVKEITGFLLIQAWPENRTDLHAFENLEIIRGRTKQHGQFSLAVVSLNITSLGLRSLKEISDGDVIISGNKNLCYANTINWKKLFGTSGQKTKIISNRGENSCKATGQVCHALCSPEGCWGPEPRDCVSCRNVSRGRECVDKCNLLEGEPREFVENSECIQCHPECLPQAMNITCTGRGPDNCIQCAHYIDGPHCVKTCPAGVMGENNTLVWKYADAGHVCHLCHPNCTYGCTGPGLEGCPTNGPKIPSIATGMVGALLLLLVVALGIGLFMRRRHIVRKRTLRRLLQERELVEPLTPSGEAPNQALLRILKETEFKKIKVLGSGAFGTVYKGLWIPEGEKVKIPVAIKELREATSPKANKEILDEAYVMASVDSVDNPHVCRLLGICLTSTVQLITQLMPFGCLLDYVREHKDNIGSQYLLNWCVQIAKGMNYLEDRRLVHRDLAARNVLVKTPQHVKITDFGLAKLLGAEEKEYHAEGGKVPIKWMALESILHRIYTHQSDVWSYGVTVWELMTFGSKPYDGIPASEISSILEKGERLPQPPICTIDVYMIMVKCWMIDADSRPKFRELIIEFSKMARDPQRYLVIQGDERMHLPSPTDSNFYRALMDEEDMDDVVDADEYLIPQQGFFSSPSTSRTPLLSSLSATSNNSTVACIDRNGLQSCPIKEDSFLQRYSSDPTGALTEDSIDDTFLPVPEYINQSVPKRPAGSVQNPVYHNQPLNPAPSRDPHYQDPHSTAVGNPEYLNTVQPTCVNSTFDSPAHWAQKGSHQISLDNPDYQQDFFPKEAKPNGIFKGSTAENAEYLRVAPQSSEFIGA

Row | SMILES | GI50 [1] | GI50 [2] | IC50 (A431 cells) | GI50 [3]
1 | C=CC(=O)Nc1cc(F)cc(Nc2nc(Nc3cnn(C)c3)ncc2-c2ccc(C(F)(F)F)cc2)c1 [Compound 239, N-(3-fluoro-5-((2-((1-methyl-1H-pyrazol-4-yl)amino)-5-(4-(trifluoromethyl)phenyl)pyrimidin-4-yl)amino)phenyl)acrylamide] | 251 nM | 36 nM | 229 nM | 91 nM
2 | C=CC(=O)Nc1ccc(F)c(Nc2nc(Nc3cnn(CC(C)(C)O)c3)ncc2-c2ccc(C(F)(F)F)cc2)c1 [Compound 240, N-(4-fluoro-3-((2-((1-(2-hydroxy-2-methylpropyl)-1H-pyrazol-4-yl)amino)-5-(4-(trifluoromethyl)phenyl)pyrimidin-4-yl)amino)phenyl)acrylamide] | 2010 nM | 395 nM | 441 nM | 861 nM
3 | C=CC(=O)Nc1ccc(F)c(Nc2nc(Nc3cn(CCO)nc3Cl)ncc2-c2ccc(C(F)(F)F)cc2)c1 [Compound 241, N-(3-((2-((3-chloro-1-(2-hydroxyethyl)-1H-pyrazol-4-yl)amino)-5-(4-(trifluoromethyl)phenyl)pyrimidin-4-yl)amino)-4-fluorophenyl)acrylamide] | 343 nM | 105 nM | 105 nM | 146 nM
4 | C=CC(=O)Nc1ccc(F)c(Nc2nc(Nc3cnn(C)c3)ncc2C#CC2CC2)c1 [Compound 244, N-(3-{[5-(2-cyclopropylethynyl)-2-[(1-methyl-1H-pyrazol-4-yl)amino]pyrimidin-4-yl]amino}-4-fluorophenyl)prop-2-enamide] | 2250 nM | 1890 nM | 1810 nM | 2180 nM
5 | C=CC(=O)Nc1ccc(F)c(Nc2nc(Nc3cn(C)nc3Cl)ncc2-c2ccc(C(F)(F)F)cc2)c1 [Compound 245, N-[3-({2-[(3-chloro-1-methyl-1H-pyrazol-4-yl)amino]-5-[4-(trifluoromethyl)phenyl]pyrimidin-4-yl}amino)-4-fluorophenyl]prop-2-enamide] | 202 nM | 91 nM | 63 nM | 115 nM
6 | C=CC(=O)Nc1ccc(F)c(Nc2nc(Nc3cnn(C(C)(C)C#N)c3)ncc2-c2ccc(C(F)(F)F)cc2)c1 [Compound 246, N-(3-((2-((1-(2-cyanopropan-2-yl)-1H-pyrazol-4-yl)amino)-5-(4-(trifluoromethyl)phenyl)pyrimidin-4-yl)amino)-4-fluorophenyl)acrylamide] | 2070 nM | 299 nM | 368 nM | 303 nM
7 | [2H]C([2H])=CC(=O)Nc1ccc(F)c(Nc2nc(Nc3cn(C)nc3Cl)ncc2-c2ccc(C(F)(F)F)cc2)c1 [Compound 249, N-(3-((2-((3-chloro-1-methyl-1H-pyrazol-4-yl)amino)-5-(4-(trifluoromethyl)phenyl)pyrimidin-4-yl)amino)-4-fluorophenyl)acrylamide-3,3-d2] | 1050 nM | 101 nM | 123 nM | 261 nM
8 | [2H]C([2H])=CC(=O)Nc1ccc(F)c(Nc2nc(Nc3cnn(C)c3)ncc2-c2ccc(Br)cc2)c1 [Compound 250, N-(3-((5-(4-bromophenyl)-2-((1-methyl-1H-pyrazol-4-yl)amino)pyrimidin-4-yl)amino)-4-fluorophenyl)acrylamide-3,3-d2] | 204 nM | 34 nM | 65 nM | 47 nM
9 | C#CC(=O)Nc1ccc(F)c(Nc2nc(Nc3cnn(C)c3)ncc2-c2ccc(C(F)(F)F)cc2)c1 [Compound 254, N-[4-fluoro-3-({2-[(1-methyl-1H-pyrazol-4-yl)amino]-5-[4-(trifluoromethyl)phenyl]pyrimidin-4-yl}amino)phenyl] prop-2-ynamide] | 8670 nM | 8460 nM | 1000 nM | 9470 nM
10 | C=CC(=O)Nc1ccc(F)c(Nc2nc(Nc3cnn(C)c3)ncc2Br)c1 [Compound 256, N-(3-((5-bromo-2-((1-methyl-1H-pyrazol-4-yl)amino)pyrimidin-4-yl)amino)-4-fluorophenyl)acrylamide] | 755 nM | 923 nM | 1020 nM | 411 nM

Continued, values first:

Row | GI50 [1] | GI50 [2] | IC50 (A431 cells) | GI50 [3] | SMILES
11 | 471 nM | 149 nM | 93 nM | 328 nM | C=CC(=O)Nc1ccc(F)c(Nc2nc(Nc3cnn(C)c3)ncc2-c2ccc3ncnn3c2)c1 [Compound 279, N-(3-((5-([1,2,4]triazolo[1,5-a]pyridin-6-yl)-2-((1-methyl-1H-pyrazol-4-yl)amino)pyrimidin-4-yl)amino)-4-fluorophenyl)acrylamide]
12 | 110 nM | 21 nM | 4 nM | 28 nM | C=CC(=O)Nc1cccc(Nc2nc(Nc3cnn(C)c3)ncc2-c2ccc(CC(F)(F)F)cc2)c1 [Compound 293, N-(3-((2-((1-methyl-1H-pyrazol-4-yl)amino)-5-(4-(2,2,2-trifluoroethyl)phenyl)pyrimidin-4-yl)amino)phenyl)acrylamide]
13 | 803 nM | 100 nM | 45 nM | 80 nM | C=CC(=O)Nc1ccc(F)c(Nc2nc(Nc3cnn(C)c3)ncc2-c2ccc(C3(C(F)(F)F)CC3)cc2)c1 [Compound 294, N-(4-fluoro-3-((2-((1-methyl-1H-pyrazol-4-yl)amino)-5-(4-(1-(trifluoromethyl)cyclopropyl)phenyl)pyrimidin-4-yl)amino)phenyl)acrylamide]
14 | 210 nM | 34 nM | 6 nM | 38 nM | C=CC(=O)Nc1cc(F)cc(Nc2nc(Nc3cnn(C)c3)ncc2-c2ccc(CC(F)(F)F)cc2)c1 [Compound 295, N-(3-fluoro-5-((2-((1-methyl-1H-pyrazol-4-yl)amino)-5-(4-(2,2,2-trifluoroethyl)phenyl)pyrimidin-4-yl)amino)phenyl)acrylamide]
15 | 971 nM | 84 nM | 32 nM | 106 nM | C=CC(=O)Nc1ccc(F)c(Nc2nc(Nc3cnn(C)c3)ncc2-c2ccc(C(F)(F)C(F)(F)F)cc2)c1 [Compound 296, N-(4-fluoro-3-((2-((1-methyl-1H-pyrazol-4-yl)amino)-5-(4-(perfluoroethyl)phenyl)pyrimidin-4-yl)amino)phenyl)acrylamide]
16 | 402 nM | 99 nM | 120 nM | 128 nM | C=CC(=O)Nc1ccc(F)c(Nc2nc(Nc3cnn(C)c3)ncc2-c2csc(Cl)c2)c1 [Compound 298, N-(3-((5-(5-chlorothiophen-3-yl)-2-((1-methyl-1H-pyrazol-4-yl)amino)pyrimidin-4-yl)amino)-4-fluorophenyl)acrylamide]
17 | 339 nM | 99 nM | 173 nM | 257 nM | C=CC(=O)Nc1ccc(F)c(Nc2nc(Nc3cnn(C)c3)ncc2-c2ccc3ccoc3c2)c1 [Compound 299, N-(3-((5-(benzofuran-6-yl)-2-((1-methyl-1H-pyrazol-4-yl)amino)pyrimidin-4-yl)amino)-4-fluorophenyl)acrylamide]
18 | 9740 nM | 1160 nM | 229 nM | 289 nM | C=CC(=O)Nc1ccc(F)c(Nc2nc(Nc3cnn(C)c3)ncc2-c2ccc(Oc3cccc(F)c3)cc2)c1 [Compound 300, N-(4-fluoro-3-((5-(4-(3-fluorophenoxy)phenyl)-2-((1-methyl-1H-pyrazol-4-yl)amino)pyrimidin-4-yl)amino)phenyl)acrylamide]
19 | 187 nM | 193 nM | 16 nM | 68 nM | CN(C)C/C=C/C(=O)Nc1ccc(F)c(Nc2nc(Nc3cnn(C)c3)ncc2-c2ccc(CC(F)(F)F)cc2)c1 [Compound 301, (E)-4-(dimethylamino)-N-(4-fluoro-3-((2-((1-methyl-1H-pyrazol-4-yl)amino)-5-(4-(2,2,2-trifluoroethyl)phenyl)pyrimidin-4-yl)amino)phenyl)but-2-enamide]
20 | 653 nM | 99 nM | 12 nM | 67 nM | C=CC(=O)Nc1cc(Br)cc(Nc2nc(Nc3cnn(C)c3)ncc2-c2ccc(CC(F)(F)F)cc2)c1 [Compound 302, N-(3-bromo-5-((2-((1-methyl-1H-pyrazol-4-yl)amino)-5-(4-(2,2,2-trifluoroethyl)phenyl)pyrimidin-4-yl)amino)phenyl)acrylamide]
